Measured values from ChEMBL document CHEMBL5150076, “Discovery of Novel Orally Bioavailable Triazoles with Potent and Broad-Spectrum Antifungal Activity In Vitro and In Vivo” (J Med Chem, 2022).
≈ marks a conversion by molar mass, not a printed value. Calls of active or inactive are those of the source. The rule behind the calls is not given here.

Experiments:
Cryptococcus neoformans [1] = experiment: Antifungal activity against Cryptococcus neoformans H99 infected in ICR mouse assessed as median survival time at 0.5 mg/kg, po qd infected with fungus for 2 hrs prior to compound addition for 7 days and measured for 20 days; type: functional; conditions: time 20 day
[2] = Cytotoxicity against HUVEC assessed as cell viability at 64 ug/ml incubated for 24 hrs by CCK-8 assay; type: toxicity, cell-based; conditions: human, HUVEC cells, dose 64 µg/ml, read-out: Activity
Aspergillus fumigatus [3] = experiment: Antifungal activity against Aspergillus fumigatus 7544 infected in ICR mouse assessed as survival rate at 60 mg/kg, po qd infected with fungus for 2 hrs prior to compound addition for 7 days and measured for 20 days; type: functional; conditions: time 20 day
Candida albicans [4] = experiment: Antifungal activity against Candida albicans 100 infected in ICR mouse assessed as delay in mortality at 0.25 mg/kg, po qd infected with fungus for 2 hrs prior to compound addition for 7 days and measured for 20 days; type: functional, organism-based; conditions: time 20.0 day
[5] = Induction of drug resistance in Candida albicans SC5314 assessed as increase in MIC after 26 days (reference value: 0.0313 microg/ml); type: functional; conditions: SC5314, 624 h, time 26 day
Candida albicans [6] = experiment: Antifungal activity against Candida albicans 25#; type: functional
[7] = target: T1, Lanosterol 14-alpha demethylase (Candida albicans (strain SC5314 / ATCC MYA-2876) (Yeast), UniProt P10613); experiment: Inhibition of CYP51 in Candida albicans SC5314 assessed as lanosterol level at 0.0625 ug/ml measured after 12 hrs by GC-MS analysis (reference value: 2.18%); parameters: scale not given: the % may be the effect or the level left; conditions: dose 0.0625 µg/ml
T1 sequence (P10613 whole entry): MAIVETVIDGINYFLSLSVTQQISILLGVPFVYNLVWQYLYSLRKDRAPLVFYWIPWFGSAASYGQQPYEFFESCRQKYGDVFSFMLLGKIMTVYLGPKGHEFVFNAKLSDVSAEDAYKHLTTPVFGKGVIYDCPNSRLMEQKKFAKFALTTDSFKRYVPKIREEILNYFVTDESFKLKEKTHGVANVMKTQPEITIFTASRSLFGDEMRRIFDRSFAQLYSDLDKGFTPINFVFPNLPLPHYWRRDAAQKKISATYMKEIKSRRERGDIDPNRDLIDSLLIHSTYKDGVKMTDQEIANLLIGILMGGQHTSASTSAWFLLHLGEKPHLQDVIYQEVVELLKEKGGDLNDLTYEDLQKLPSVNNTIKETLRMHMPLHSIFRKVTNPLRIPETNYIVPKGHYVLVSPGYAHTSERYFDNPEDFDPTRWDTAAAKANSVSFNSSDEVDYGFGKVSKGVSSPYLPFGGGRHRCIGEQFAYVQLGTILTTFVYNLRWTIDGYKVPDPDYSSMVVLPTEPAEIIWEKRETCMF

Nannizzia gypsea = experiment: Antifungal activity against Microsporum gypseum; type: functional
Pichia kudriavzevii [8] = experiment: Antifungal activity against Candida krusei 397; type: functional
Candida albicans [9] = experiment: Antifungal activity against Candida albicans 305; type: functional
Cryptococcus neoformans [10] = experiment: Antifungal activity against Cryptococcus neoformans H99 infected in ICR mouse assessed as median survival time at 5 mg/kg, po qd infected with fungus for 2 hrs prior to compound addition for 7 days and measured for 20 days; type: functional; conditions: time 20 day
[11] = Oral bioavailability in Sprague-Dawley rat at 5 mg/kg by LC-MS analysis; type: ADME, organism-based; conditions: in vivo
Candida albicans [12] = experiment: Inhibition of biofilm formation in Candida albicans SC5314 at 0.002 ug/ml relative to control; type: functional
[13] = Tmax in Sprague-Dawley rat at 5 mg/kg, po by LC-MS analysis; type: ADME, organism-based; conditions: in vivo
Candida albicans [14] = experiment: Antifungal activity against Candida albicans SC5314 incubated for 24 hrs by microbroth dilution method; type: functional
Candida parapsilosis [15] = experiment: Antifungal activity against Candida parapsilosis 90018; type: functional; conditions: Lodderomyces parapsilosis
Candida albicans [16] = experiment: Antifungal activity against Candida albicans Y0109; type: functional
Cryptococcus neoformans [17] = experiment: Antifungal activity against Cryptococcus neoformans H99 infected in ICR mouse assessed as median survival time at 1 mg/kg, po qd infected with fungus for 2 hrs prior to compound addition for 7 days and measured for 20 days; type: functional; conditions: time 20 day
Candida albicans [18] = experiment: Antifungal activity against Candida albicans 100 infected in ICR mouse assessed as median survival time at 0.25 mg/kg, po qd infected with fungus for 2 hrs prior to compound addition for 7 days and measured for 20 days; type: functional; conditions: time 20 day
[19] = Induction of hemolysis in rabbit RBC at 64 ug/ml incubated for 1 hr; type: toxicity, cell-based, Oryctolagus cuniculus, Erythrocyte; conditions: red blood cells, dose 64 µg/ml, read-out: Activity
Candida tropicalis = experiment: Antifungal activity against Candida tropicalis ATCC750; type: functional
[20] = target: T1, Lanosterol 14-alpha demethylase; experiment: Inhibition of CYP51 in Candida albicans SC5314 assessed as eburicol level at 0.0625 ug/ml measured after 12 hrs by GC-MS analysis (reference value: 0.00%); parameters: scale not given: the % may be the effect or the level left; conditions: dose 0.0625 µg/ml
[21] = AUC(0 to infinity) in Sprague-Dawley rat at 5 mg/kg, po by LC-MS analysis; type: ADME, organism-based; parameters: time infinity, dose 5 mg/kg, route po; conditions: in vivo
[22] = Half life in Sprague-Dawley rat at 2 mg/kg, iv by LC-MS analysis; type: ADME, organism-based; conditions: in vivo
Nakaseomyces glabratus = experiment: Antifungal activity against Candida glabrata ATCC2001; type: functional
[Candida] auris [23] = Antifungal activity against Candida auris 887; type: functional; conditions: Candidozyma auris
Candida albicans [24] = experiment: Antifungal activity against Candida albicans 28#; type: functional
Pichia kudriavzevii [25] = experiment: Antifungal activity against Candida krusei 463; type: functional
Pichia kudriavzevii [26] = experiment: Antifungal activity against Candida krusei 629; type: functional
Aspergillus fumigatus [27] = experiment: Antifungal activity against Aspergillus fumigatus 7544 incubated for 48 hrs by microbroth dilution method; type: functional
Cryptococcus neoformans [28] = experiment: Antifungal activity against Cryptococcus neoformans H99 infected in ICR mouse assessed as delay in mortality at 0.5 to 5 mg/kg, po qd infected with fungus for 2 hrs prior to compound addition for 7 days and measured for 20 days; type: functional, organism-based; conditions: dose 0.5-5 mg/kg, time 20.0 day
Cryptococcus neoformans [29] = experiment: Antifungal activity against Cryptococcus neoformans H99 infected in po dosed ICR mouse assessed as increase in survival infected with fungus for 2 hrs prior to compound addition for 7 days and measured for 20 days; type: functional, organism-based; conditions: dose 0.5-5 mg/kg, time 20.0 day, DDE = dose-dependent effect
Cryptococcus neoformans [30] = experiment: Antifungal activity against Cryptococcus neoformans H99 infected in ICR mouse assessed as median survival time at 2 mg/kg, po qd infected with fungus for 2 hrs prior to compound addition for 7 days and measured for 20 days; type: functional; conditions: time 20 day
Candida albicans [31] = experiment: Inhibition of biofilm formation in Candida albicans SC5314; type: functional, organism-based; conditions: dose 0.002-0.5 µg/ml, DDE = dose-dependent effect
[Candida] auris [32] = Antifungal activity against Candida auris D12; type: functional; conditions: Candidozyma auris
Candida albicans [33] = experiment: Antifungal activity against Candida albicans 14#; type: functional
[34] = Half life in Sprague-Dawley rat at 5 mg/kg, po by LC-MS analysis; type: ADME, organism-based; conditions: in vivo
Pichia kudriavzevii [35] = experiment: Antifungal activity against Candida krusei 467; type: functional
[36] = Cmax in Sprague-Dawley rat at 5 mg/kg, po by LC-MS analysis; type: ADME, organism-based; parameters: dose 5 mg/kg, route po; conditions: in vivo
[Candida] auris [37] = Antifungal activity against Candida auris 791; type: functional; conditions: Candidozyma auris
[38] = Induction of drug resistance in Candida albicans SC5314 assessed as increase in MIC after 2 weeks (reference value: 0.008 microg/ml); type: functional; conditions: SC5314, 336 h
[Candida] auris [39] = Antifungal activity against Candida auris BS12372; type: functional; conditions: Candidozyma auris
Aspergillus fumigatus [40] = experiment: Antifungal activity against Aspergillus fumigatus 7544 infected in ICR mouse assessed as delay in mortality at 20 to 60 mg/kg, po qd infected with fungus for 2 hrs prior to compound addition for 7 days and measured for 20 days; type: functional, organism-based; conditions: dose 20-60 mg/kg, time 20.0 day
[41] = target: T1, Lanosterol 14-alpha demethylase; experiment: Inhibition of CYP51 in Candida albicans SC5314 assessed as sterol level at 0.0625 ug/ml measured after 12 hrs by GC-MS analysis (reference value: 25.23%); parameters: scale not given: the % may be the effect or the level left; conditions: dose 0.0625 µg/ml
Candida albicans [42] = experiment: Inhibition of biofilm formation in Candida albicans SC5314 at 0.0625 ug/ml relative to control; type: functional
Candida albicans [43] = experiment: Antifungal activity against Candida albicans SC5314 infected in ICR mouse assessed as median survival time at 0.25 mg/kg, po qd infected with fungus for 2 hrs prior to compound addition for 7 days and measured for 20 days; type: functional; conditions: time 20 day
Candida parapsilosis [44] = experiment: Antifungal activity against Candida parapsilosis 700; type: functional; conditions: Lodderomyces parapsilosis

SMILES: C[C@@H](c1cn(-c2ccc(Cl)cc2F)nn1)[C@](O)(Cn1cncn1)c1ccc(F)cc1F
- Time (Cryptococcus neoformans [1]): 10.5 days
- viability at 24 h, 64 ug/ml [2]: 89.1%
- Activity (Aspergillus fumigatus [3]): 100%
- Activity (Candida albicans [4]): Active
- MIC [5]: 0.125 µg/mL
- MIC (Candida albicans [6]): 16 µg/mL (≈ 35.6 µM)
- Activity [7]: 6.46%
- MIC (Nannizzia gypsea): 1 µg/mL (≈ 2.23 µM)
- MIC (Pichia kudriavzevii [8]): 0.125 µg/mL (≈ 0.278 µM)
- MIC (Candida albicans [9]): 8 µg/mL (≈ 17.8 µM)
- Time (Cryptococcus neoformans [10]): 18 days
- bioavailability [11]: 34%
- inhibition at 0.002 µg/mL (Candida albicans [12]): 20%
- Tmax [13]: 2.71 h
- MIC (Candida albicans [14]): 0.0625 µg/mL (≈ 0.139 µM)
- MIC (Candida parapsilosis [15]): ≤ 0.0313 µg/mL
- MIC (Candida albicans [16]): 0.0156 µg/mL (≈ 0.0348 µM)
- Time (Cryptococcus neoformans [17]): 14 days
- Time (Candida albicans [18]): 14 days
- hemolysis at 1 h, 64 ug/ml [19]: 0.3%
- MIC (Candida tropicalis): 8 µg/mL (≈ 17.8 µM)
- Activity [20]: 88.96%
- AUC(0-inf) [21]: 3860 ng·h/mL
- half-life [22]: 4.5 h
- MIC (Nakaseomyces glabratus): 0.125 µg/mL (≈ 0.278 µM)
- MIC ([Candida] auris [23]): 1 µg/mL (≈ 2.23 µM)
- MIC (Candida albicans [24]): ≤ 0.0313 µg/mL
- MIC (Pichia kudriavzevii [25]): 0.125 µg/mL (≈ 0.278 µM)
- MIC (Pichia kudriavzevii [26]): 0.25 µg/mL (≈ 0.557 µM)
- MIC (Aspergillus fumigatus [27]): 1 µg/mL (≈ 2.23 µM)
- Activity (Cryptococcus neoformans [28]): Active
- Activity (Cryptococcus neoformans [29]): Dde
- Time (Cryptococcus neoformans [30]): 8.5 days
- inhibition (Candida albicans [31]): Dde
- MIC ([Candida] auris [32]): 1 µg/mL (≈ 2.23 µM)
- MIC (Candida albicans [33]): 8 µg/mL (≈ 17.8 µM)
- half-life [34]: 1.4 h
- MIC (Pichia kudriavzevii [35]): 0.125 µg/mL (≈ 0.278 µM)
- Cmax [36]: 837 ng/mL
- MIC ([Candida] auris [37]): 1 µg/mL (≈ 2.23 µM)
- MIC [38]: 0.313 µg/mL
- MIC ([Candida] auris [39]): 0.25 µg/mL (≈ 0.557 µM)
- Activity (Aspergillus fumigatus [40]): Active
- Activity [41]: 3.82%
- inhibition at 0.0625 µg/mL (Candida albicans [42]): 75%
- Time (Candida albicans [43]): 13.5 days
- MIC (Candida parapsilosis [44]): 0.0625 µg/mL (≈ 0.139 µM)
